Laboratory results as given in patent US20240358624A1, “APPLICATION TYPE BODY-CORRECTING-FILM FORMING AGENT” (SHISEIDO COMPANY, LTD., priority 2021, published 2024).
Peptide text beside a SMILES is read from it.

Assay: Permeability test with stationary Franz diffusion cell and human skin
Type: in vitro ADME
Experimental: The intramembrane concentrations of various water-soluble agents in the epidermis and dermis after 24 hours were measured using the following conditions and methods with a stationary Franz diffusion cell and human skin.
• Cell type: Stationary Franz diffusion cell (manufactured by Biocom Systems, Inc.) • Receptor well volume: 3.3 mL • Target skin area: 0.55 cm^2 • Membrane type: Human skin having a thickness of 300 μm (acquired from New York Firefighter's Skin Bank, Science Care, Allosource, or BioIVT) • Number of skin donors: 1 individual • Details of donors: Gender: male or female; age: from 30 to 70 years old; site: thigh or upper torso • Receptor fluid: Phosphate buffered saline (PBS) containing 0.01% w/w NaN3 (preservative)
The concentrations of water-soluble agents were measured in the receptor chamber of the diffusion cell at different time points. At the end of the diffusion test, the skin was sequentially tape-stripped and divided into epidermal and dermal layers. Concentrates of various water-soluble agents in each of the grouped tape strips and epidermal and dermal tissues were extracted using an extraction solvent and analyzed on an Agilent G6120 HPLC system equipped with an LC-MS detector.
The obtained skin was cryopreserved in a freezer at −20° C. until the morning of the test. Before use, the skin was removed from the freezer and completely thawed at room temperature. Only visually intact areas of the skin were used during testing.
The receptor fluid was prepared at the appropriate pH and degassed by filtering the receptor fluid through a ZapCap (registered trademark) CR 0.2 μm membrane while vacuuming.
The diffusion cell was assembled according to (1) to (10) below. […]
Once the cell was assembled and the skin was hydrated for 20 minutes, a tritiated water test was performed to assess the barrier integrity of each skin piece before applying the test sample to the skin. Skin barrier integrity was evaluated according to (a) to (i) below. […]

COc1ccc(C(=O)[O-])c(O)c1.[K+] [potassium 4-methoxysalicylate]
Distribution in the skin when it permeates the skin (from body-correcting-film forming agent, Table 1): tends to remain in the epidermis

NC(=O)c1cccnc1 [nicotinic acid amide, reference compound]
Skin permeability (dosage form of the second agent is a water-in-oil emulsion composition): skin permeability is further improved

NCC(=O)NCC(=O)O [glycylglycine] (H-Gly-Gly-OH)
Skin permeability (dosage form of the second agent is an oil-in-water emulsion composition): skin permeability is further improved
